From PMC6478789, “A chemical toolbox for the study of bromodomains and epigenetic signaling” (Nature Communications, 2019)

Experiments:
AAK1 = biological target: T1, AAK1 (Homo sapiens, UniProt Q2M2I8); assay: Temperature shift assay (protein kinases); format: binding; conditions: 10 μM probe; average of three measurements
T1 construct: Recombinant protein domains (bromodomain or kinases) at a concentration of 2 μM
Procedure: (§1) Temperature shift assays have been described by Fedorov et al.[46]. Recombinant protein domains (bromodomain or kinases) at a concentration of 2 μM in 10 mM HEPES, pH 7.5, and 500 mM NaCl were mixed with 10 μM of chemical probes. Temperature-dependent protein unfolding profiles were measured using a Real-Time PCR Mx3005p machine (Stratagene).

AURKB = biological target: T2, AURKB (Homo sapiens, UniProt Q96GD4); assay: Temperature shift assay (protein kinases); format: binding; conditions: 10 μM probe; average of three measurements
T2 construct: Recombinant protein domains (bromodomain or kinases) at a concentration of 2 μM
T2 sequence (Q96GD4 77-327 limits assumed, species assumed): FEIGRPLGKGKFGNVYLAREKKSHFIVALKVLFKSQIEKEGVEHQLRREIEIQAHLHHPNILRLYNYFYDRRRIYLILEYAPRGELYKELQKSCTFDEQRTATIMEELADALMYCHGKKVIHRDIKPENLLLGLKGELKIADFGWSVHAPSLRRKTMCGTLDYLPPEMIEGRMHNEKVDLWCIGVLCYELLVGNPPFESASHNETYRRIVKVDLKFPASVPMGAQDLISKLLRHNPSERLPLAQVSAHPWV
Procedure: as §1

BMX = biological target: T3, BMX (Homo sapiens, UniProt P51813); assay: Temperature shift assay (protein kinases); format: binding; conditions: 10 μM probe; average of three measurements
T3 construct: Recombinant protein domains (bromodomain or kinases) at a concentration of 2 μM
T3 sequence (P51813 417-675 limits assumed, species assumed): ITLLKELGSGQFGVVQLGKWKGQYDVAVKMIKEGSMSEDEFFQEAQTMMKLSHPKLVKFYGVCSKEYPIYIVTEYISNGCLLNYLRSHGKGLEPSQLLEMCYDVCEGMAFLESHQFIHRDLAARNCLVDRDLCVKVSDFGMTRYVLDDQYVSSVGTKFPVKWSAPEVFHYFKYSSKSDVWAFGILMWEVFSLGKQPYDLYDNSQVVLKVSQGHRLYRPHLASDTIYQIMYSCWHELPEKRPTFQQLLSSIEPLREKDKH
Procedure: as §1

CAMK1G = biological target: T4, CAMK1G (Homo sapiens, UniProt Q96NX5); assay: Temperature shift assay (protein kinases); format: binding; conditions: 10 μM probe; average of three measurements
T4 construct: Recombinant protein domains (bromodomain or kinases) at a concentration of 2 μM
T4 sequence (Q96NX5 23-277 limits assumed, species assumed): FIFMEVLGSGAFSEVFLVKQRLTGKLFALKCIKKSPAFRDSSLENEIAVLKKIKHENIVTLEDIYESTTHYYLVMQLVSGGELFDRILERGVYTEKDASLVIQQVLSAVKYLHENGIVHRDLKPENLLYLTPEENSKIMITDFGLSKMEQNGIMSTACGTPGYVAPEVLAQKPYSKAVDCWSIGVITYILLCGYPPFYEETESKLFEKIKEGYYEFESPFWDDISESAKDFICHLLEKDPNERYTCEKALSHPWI
Procedure: as §1

CASK = biological target: T5, CASK (Homo sapiens, UniProt O14936); assay: Temperature shift assay (protein kinases); format: binding; conditions: 10 μM probe; average of three measurements
T5 construct: Recombinant protein domains (bromodomain or kinases) at a concentration of 2 μM
T5 sequence (O14936 12-276 limits assumed): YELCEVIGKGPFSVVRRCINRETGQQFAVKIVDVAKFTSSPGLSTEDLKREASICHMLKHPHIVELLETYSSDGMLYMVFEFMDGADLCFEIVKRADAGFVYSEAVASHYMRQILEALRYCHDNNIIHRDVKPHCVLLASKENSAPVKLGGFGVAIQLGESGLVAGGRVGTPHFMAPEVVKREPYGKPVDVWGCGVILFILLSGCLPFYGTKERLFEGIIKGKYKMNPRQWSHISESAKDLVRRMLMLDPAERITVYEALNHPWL
Procedure: as §1

CK2A1 = biological target: T6, CK2A1 (Homo sapiens, UniProt P68400); assay: Temperature shift assay (protein kinases); format: binding; conditions: 10 μM probe; average of three measurements
T6 construct: Recombinant protein domains (bromodomain or kinases) at a concentration of 2 μM
T6 sequence (P68400 39-324 limits assumed): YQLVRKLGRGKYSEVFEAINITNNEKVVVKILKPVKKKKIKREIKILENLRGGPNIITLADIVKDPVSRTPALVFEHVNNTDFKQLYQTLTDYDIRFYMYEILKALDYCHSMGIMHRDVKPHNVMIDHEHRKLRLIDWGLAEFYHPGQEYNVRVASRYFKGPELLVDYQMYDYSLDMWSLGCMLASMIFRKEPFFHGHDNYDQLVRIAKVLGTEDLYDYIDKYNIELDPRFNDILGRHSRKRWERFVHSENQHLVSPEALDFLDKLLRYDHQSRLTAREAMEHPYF
Procedure: as §1

CSNK1D = biological target: T7, CSNK1D (Homo sapiens, UniProt P48730); assay: Temperature shift assay (protein kinases); format: binding; conditions: 10 μM probe; average of three measurements
T7 construct: Recombinant protein domains (bromodomain or kinases) at a concentration of 2 μM
T7 sequence (P48730 9-277 limits assumed): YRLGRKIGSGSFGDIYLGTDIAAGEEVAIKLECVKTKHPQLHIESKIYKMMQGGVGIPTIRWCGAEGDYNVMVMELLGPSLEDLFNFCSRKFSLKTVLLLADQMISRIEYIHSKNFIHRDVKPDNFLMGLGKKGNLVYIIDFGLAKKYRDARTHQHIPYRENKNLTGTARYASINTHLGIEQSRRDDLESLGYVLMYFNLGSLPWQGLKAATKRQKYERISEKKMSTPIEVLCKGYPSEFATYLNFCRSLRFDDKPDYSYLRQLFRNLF
Procedure: as §1

DAPK3 = biological target: T8, DAPK3 (Homo sapiens, UniProt O43293); assay: Temperature shift assay (protein kinases); format: binding; conditions: 10 μM probe; average of three measurements
T8 construct: Recombinant protein domains (bromodomain or kinases) at a concentration of 2 μM
T8 sequence (O43293 13-275 limits assumed, species assumed): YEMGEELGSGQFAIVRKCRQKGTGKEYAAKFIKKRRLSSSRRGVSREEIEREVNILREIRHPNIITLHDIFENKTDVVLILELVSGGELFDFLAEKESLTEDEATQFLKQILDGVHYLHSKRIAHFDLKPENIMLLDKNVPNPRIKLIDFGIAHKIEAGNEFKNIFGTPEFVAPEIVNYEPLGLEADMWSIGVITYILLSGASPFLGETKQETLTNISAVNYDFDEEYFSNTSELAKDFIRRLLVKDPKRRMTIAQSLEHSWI
Procedure: as §1

MAPK1 = biological target: T9, MAPK1 (Homo sapiens, UniProt P28482); assay: Temperature shift assay (protein kinases); format: binding; conditions: 10 μM probe; average of three measurements
T9 construct: Recombinant protein domains (bromodomain or kinases) at a concentration of 2 μM
T9 sequence (P28482 25-313 limits assumed, species assumed): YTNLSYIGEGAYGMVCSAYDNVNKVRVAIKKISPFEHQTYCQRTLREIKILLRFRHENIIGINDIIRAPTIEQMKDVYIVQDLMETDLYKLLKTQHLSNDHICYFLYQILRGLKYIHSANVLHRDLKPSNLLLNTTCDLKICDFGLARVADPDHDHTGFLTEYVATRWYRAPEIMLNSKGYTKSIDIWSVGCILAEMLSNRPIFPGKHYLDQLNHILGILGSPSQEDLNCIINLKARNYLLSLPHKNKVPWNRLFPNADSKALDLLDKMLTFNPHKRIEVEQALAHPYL
Procedure: as §1

MAPK8 = biological target: T10, MAPK8 (Homo sapiens, UniProt P45983); assay: Temperature shift assay (protein kinases); format: binding; conditions: 10 μM probe; average of three measurements
T10 construct: Recombinant protein domains (bromodomain or kinases) at a concentration of 2 μM
T10 sequence (P45983 26-321 limits assumed, species assumed): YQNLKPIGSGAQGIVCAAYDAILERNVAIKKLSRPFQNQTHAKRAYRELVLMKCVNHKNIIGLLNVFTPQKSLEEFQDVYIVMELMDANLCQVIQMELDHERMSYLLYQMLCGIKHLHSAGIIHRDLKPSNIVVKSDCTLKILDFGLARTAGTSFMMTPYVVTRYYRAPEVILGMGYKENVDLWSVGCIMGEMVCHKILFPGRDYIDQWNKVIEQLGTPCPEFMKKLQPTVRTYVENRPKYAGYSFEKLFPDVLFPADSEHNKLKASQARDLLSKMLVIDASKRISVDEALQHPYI
Procedure: as §1

PIM1 = biological target: T11, PIM1 (Homo sapiens, UniProt P11309); assay: Temperature shift assay (protein kinases); format: binding; conditions: 10 μM probe; average of three measurements
T11 construct: Recombinant protein domains (bromodomain or kinases) at a concentration of 2 μM
T11 sequence (P11309 38-290 limits assumed, species assumed): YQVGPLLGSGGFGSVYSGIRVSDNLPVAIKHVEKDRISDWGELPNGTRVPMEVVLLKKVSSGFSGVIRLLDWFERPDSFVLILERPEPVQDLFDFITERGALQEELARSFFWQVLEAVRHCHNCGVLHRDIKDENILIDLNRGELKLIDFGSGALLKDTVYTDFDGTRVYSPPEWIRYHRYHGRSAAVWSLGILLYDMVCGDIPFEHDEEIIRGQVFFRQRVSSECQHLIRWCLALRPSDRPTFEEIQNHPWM
Procedure: as §1

RPS6KA1 = assay: Temperature shift assay (protein kinases); format: binding; conditions: 10 μM probe; average of three measurements
Procedure: as §1

TTK = biological target: T12, TTK (Homo sapiens, UniProt P33981); assay: Temperature shift assay (protein kinases); format: binding; conditions: 10 μM probe; average of three measurements
T12 construct: Recombinant protein domains (bromodomain or kinases) at a concentration of 2 μM
T12 sequence (P33981 525-791 limits assumed): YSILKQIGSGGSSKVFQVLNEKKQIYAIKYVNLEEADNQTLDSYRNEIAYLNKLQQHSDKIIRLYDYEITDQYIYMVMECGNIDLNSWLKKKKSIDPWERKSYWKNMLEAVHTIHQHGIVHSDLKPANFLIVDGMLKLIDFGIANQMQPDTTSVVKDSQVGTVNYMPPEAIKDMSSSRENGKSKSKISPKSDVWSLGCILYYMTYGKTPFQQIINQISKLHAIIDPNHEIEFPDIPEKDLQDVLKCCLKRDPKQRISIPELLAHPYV
Procedure: as §1

53BP1 = 53BP1 (Homo sapiens, UniProt Q12888); assay: Temperature shift assay (non-BRD reader domains); format: binding; conditions: 10µM compound
Sequence of 53BP1 (Q12888 1484-1603 limits assumed, species assumed): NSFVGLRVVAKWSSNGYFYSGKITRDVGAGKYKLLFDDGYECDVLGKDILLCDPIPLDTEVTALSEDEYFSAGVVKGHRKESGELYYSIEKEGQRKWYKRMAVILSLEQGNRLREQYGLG
Procedure: as §1
(§2) Wu et al., Supplementary figures and tables 14
(§3) Supplementary Table 3: Selectivity screening data (non-BRD reader domains):
(§4) Temperature shift assay data of BRD probes screened against a diver se panel of methyl-lysine
(§5) reader domains. Compounds were screened a concentration of 10 µM. Shown are temperature

BRPF3 = BRPF3 (Homo sapiens, UniProt Q9ULD4); assay: Temperature shift assay (non-BRD reader domains); format: binding; conditions: 10µM compound
Sequence of BRPF3 (Q9ULD4 1076-1159 limits assumed, species assumed): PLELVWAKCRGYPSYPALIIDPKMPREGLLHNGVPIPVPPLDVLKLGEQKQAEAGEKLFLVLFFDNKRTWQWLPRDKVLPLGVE
Procedure: as §1, §2, §3, §4, §5

RBBP1 = assay: Temperature shift assay (non-BRD reader domains); format: binding; conditions: 10µM compound
Procedure: as §1, §2, §3, §4, §5

TDRD3 = TDRD3 (Homo sapiens, UniProt Q9H7E2); assay: Temperature shift assay (non-BRD reader domains); format: binding; conditions: 10µM compound
Sequence of TDRD3 (Q9H7E2 555-615 limits assumed, species assumed): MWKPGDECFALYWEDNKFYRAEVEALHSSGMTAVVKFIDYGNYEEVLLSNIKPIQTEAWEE
Procedure: as §1, §2, §3, §4, §5

WDR5 = WDR5 (Homo sapiens, UniProt P61964); assay: Temperature shift assay (non-BRD reader domains); format: binding; conditions: 10µM compound
Procedure: as §1, §2, §3, §4, §5

EED = EED (Homo sapiens, UniProt O75530); assay: Temperature shift assay (non-BRD reader domains); format: binding; conditions: 10µM compound
Sequence of EED (O75530 whole entry, species assumed, the tested form may be a part): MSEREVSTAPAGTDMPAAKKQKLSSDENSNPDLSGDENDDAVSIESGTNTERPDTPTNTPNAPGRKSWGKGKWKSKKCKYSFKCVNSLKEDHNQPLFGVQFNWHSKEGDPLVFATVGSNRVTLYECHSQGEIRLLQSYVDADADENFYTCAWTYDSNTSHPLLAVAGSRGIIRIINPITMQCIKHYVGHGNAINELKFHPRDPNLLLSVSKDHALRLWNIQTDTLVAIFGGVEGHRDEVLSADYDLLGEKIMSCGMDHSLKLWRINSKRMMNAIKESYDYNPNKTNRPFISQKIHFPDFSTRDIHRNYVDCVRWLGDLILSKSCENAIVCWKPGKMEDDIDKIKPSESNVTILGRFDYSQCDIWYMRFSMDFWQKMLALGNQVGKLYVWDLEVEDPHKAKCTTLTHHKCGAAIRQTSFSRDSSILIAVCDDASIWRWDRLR
Procedure: as §1, §2, §3, §4, §5

SND1 = biological target: T13, SND1 (Homo sapiens, UniProt Q7KZF4); assay: Temperature shift assay (non-BRD reader domains); format: binding; conditions: 10µM compound
T13 sequence (Q7KZF4 729-787 limits assumed): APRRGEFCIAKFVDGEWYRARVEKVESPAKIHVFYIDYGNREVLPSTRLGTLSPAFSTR
Procedure: as §1, §2, §3, §4, §5

UHRF1 = biological target: T14, UHRF1 (Homo sapiens, UniProt Q96T88); assay: Temperature shift assay (non-BRD reader domains); format: binding; conditions: 10µM compound
T14 sequence (Q96T88 126-285 limits assumed): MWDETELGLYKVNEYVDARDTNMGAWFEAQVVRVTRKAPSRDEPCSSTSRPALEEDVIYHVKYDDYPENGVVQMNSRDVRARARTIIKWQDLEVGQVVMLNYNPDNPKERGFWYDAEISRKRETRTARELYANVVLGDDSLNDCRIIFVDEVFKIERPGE
Procedure: as §1, §2, §3, §4, §5

BRD4(1,2) = BRD4(1,2) (Homo sapiens, UniProt O60885); assay: BROMOscan ligand-binding assay
From the text: (§6) BROMOscan is a binding assay based on the well-known KINOMEscan technology. This assay measures the binding of a DNA-tagged bromodomain to an immobilized BRD ligand. If an inhibitor is present, it will compete with the bromodomain binding to the immobilized ligand, resulting in reduction of a quantitative PCR (qPCR) signal in a dose-dependent manner.

BRD8(1) = BRD8(1) (Homo sapiens, UniProt Q9H0E9); assay: BROMOscan ligand-binding assay
Sequence of BRD8(1) (Q9H0E9 706-811 limits assumed): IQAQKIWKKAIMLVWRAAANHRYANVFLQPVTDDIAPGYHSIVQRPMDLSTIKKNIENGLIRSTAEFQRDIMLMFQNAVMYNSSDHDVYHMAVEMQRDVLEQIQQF
From the text: as §6

T1 sequence (Q2M2I8 46-315 limits assumed, species assumed): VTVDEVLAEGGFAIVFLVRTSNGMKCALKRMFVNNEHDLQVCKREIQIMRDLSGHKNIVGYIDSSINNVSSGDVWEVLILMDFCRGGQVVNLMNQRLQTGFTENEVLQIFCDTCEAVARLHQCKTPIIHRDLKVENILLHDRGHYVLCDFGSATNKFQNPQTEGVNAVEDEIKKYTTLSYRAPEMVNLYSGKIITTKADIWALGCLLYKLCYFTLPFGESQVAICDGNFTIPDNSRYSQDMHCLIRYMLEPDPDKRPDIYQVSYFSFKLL

SMILES	Tm (C) 10µM, temperature shift (53BP1) [Kelvin]	Tm (C) 10µM, temperature shift (BRPF3) [Kelvin]	Tm (C) 10µM, temperature shift (RBBP1) [Kelvin]	Tm (C) 10µM, temperature shift (TDRD3) [Kelvin]	Tm (C) 10µM, temperature shift (WDR5) [Kelvin]	Tm (C) 10µM, temperature shift (EED) [Kelvin]	Tm (C) 10µM, temperature shift (SND1) [Kelvin]	Tm (C) 10µM, temperature shift (UHRF1) [Kelvin]	other results
Cc1cc2c(cc1N1C(=O)c3cccc4c(CCCO)ccc(c34)C1=O)n(C)c(=O)n2C [BAY-299]	0.3	1.5	-1.0	-1.4	0.2				Temperature shift (AAK1): -0.4 Kelvin; Temperature shift (AURKB): 0.2 Kelvin; Temperature shift (BMX): 0.3 Kelvin; Temperature shift (CAMK1G): -0.6 Kelvin; Temperature shift (CASK): -0.1 Kelvin; Temperature shift (CK2A1): -1.4 Kelvin; Temperature shift (CSNK1D): 1.2 Kelvin; Temperature shift (DAPK3): -0.2 Kelvin; Temperature shift (MAPK1): 0.0 Kelvin; Temperature shift (MAPK8): -0.4 Kelvin; Temperature shift (PIM1): -0.2 Kelvin; Temperature shift (RPS6KA1): 0.1 Kelvin; Temperature shift (TTK): -0.1 Kelvin
Cc1c(NC(=O)c2cc(C(N)=O)nc3cc(F)ccc23)c(C(F)(F)F)nn1Cc1ccc(C(C)(C)C)cc1 [BAY-588]	-2.3		-0.1	-5.3	-7.3	-0.5	-1.0	-0.4	
COc1cc(Cl)c(C(=O)N[C@@H](CN[C@H]2CC[C@@H](N)CC2)Cc2ccc(C#N)cc2)cc1-c1ccc(CN[C@H](C)c2ccc(C)cc2)o1 [BAY-850]	-0.7	-0.4	-1.0	-1.8	0.2		-1.6	-0.3	
Cc1c(NC(=O)c2cc(C(N)=O)nc3cc(F)ccc23)c(C(F)(F)F)nn1Cc1ccc(C#N)cc1 [BAY-876]	0.0	-0.3	-0.3	-1.0	0.4	-0.7	-0.9	-0.2	
CCCOc1ccn2c(C(C)=O)cc(-c3ccccc3S(C)(=O)=O)c2c1 [GSK2801]									Kd (BRD4(1,2)): 65 µM; Kd (BRD8(1); KD (BROMOscan), sheet prints no unit (nM)): > 30000 nM; Kd (BRD8(1); KD, BROMOscan Gene Symbol BRD8(1)): > 100000 nM
CN1C[C@H](Nc2cnn(C)c(=O)c2Br)C[C@H](c2ccccc2)C1 [GSK4027]	-0.1	-0.3	-0.7	-0.6	0.2	-0.7	-1.0	-0.2	
CO[C@H]1CNC[C@@H](OCC2CCC(F)(F)CC2)[C@@H]1Nc1ncc(-c2cncc(C)c2)c2cc(C)c(=O)[nH]c12 [GSK8814]	-0.1	-0.2	-0.1	-0.6	0.2	-0.4	-0.5	-0.2	
Cc1nnc2c3ccccc3c(N[C@@H](C)[C@H](c3ccccc3)N(C)C)nn12 [L-Moses]		1.0	-0.4	-0.9	0.5	-0.3	-1.0		Temperature shift (AAK1): -1.6 Kelvin; Temperature shift (AURKB): 0.4 Kelvin; Temperature shift (BMX): -0.1 Kelvin; Temperature shift (CAMK1G): -0.3 Kelvin; Temperature shift (CASK): -0.1 Kelvin; Temperature shift (CK2A1): -0.1 Kelvin; Temperature shift (CSNK1D): 0.6 Kelvin; Temperature shift (DAPK3): 0.2 Kelvin; Temperature shift (MAPK1): 0.1 Kelvin; Temperature shift (MAPK8): 0.6 Kelvin; Temperature shift (PIM1): 2.3 Kelvin; Temperature shift (RPS6KA1): 0.2 Kelvin; Temperature shift (TTK): -0.5 Kelvin
